From paper PMC9127493 (Signal Transduction and Targeted Therapy, 2022)

Columns and labels:
[1] = tested on: SARS-CoV-2 variant Alpha; experiment: microbe, parasite or virus in culture; assay type: cell-based; conditions: Severe acute respiratory syndrome coronavirus 2; n = 6
[2] = tested on: SARS-CoV-2 variant Beta; experiment: microbe, parasite or virus in culture; assay type: cell-based; conditions: Severe acute respiratory syndrome coronavirus 2; n = 6
[3] = tested on: SARS-CoV-2 variant Delta; experiment: microbe, parasite or virus in culture; assay type: cell-based; conditions: Severe acute respiratory syndrome coronavirus 2; n = 6
[4] = tested on: SARS-CoV-2 variant Omicron; experiment: microbe, parasite or virus in culture; assay type: cell-based; conditions: Severe acute respiratory syndrome coronavirus 2; n = 6
[5] = tested on: four SARS-CoV-2 variants of concern (VOCs), including Alpha, Beta, Delta and Omicron; assay type: cell-based; conditions: at 200 nM
[6] = tested on: Omicron variant; experiment: Cytopathic effect (CPE) inhibition assay in Vero E6 cells; assay type: cell-based, SARS-CoV-2

| Structure (SMILES) | EC50 [1] | EC50 [2] | EC50 [3] | EC50 [4] | viral inhibition [5] | rescue of cytopathic effect [6] |
| --- | --- | --- | --- | --- | --- | --- |
| COc1ccc(C(=O)Nc2cccc(C(F)(F)F)c2)cc1Nc1nc(-c2cccnc2)c2[nH]ccc2n1 [XMU-MP-7] | < 6.9 nM | 12.4 nM | < 6.9 nM | < 6.9 nM | complete viral inhibition | significantly rescued the cytopathic effects |
| CCC(CC)COC(=O)[C@H](C)N[P@](=O)(OC[C@H]1O[C@@](C#N)(c2ccc3c(N)ncnn23)[C@H](O)[C@@H]1O)Oc1ccccc1 [Remdesivir] | 609 nM | 495 nM | 938 nM | 615 nM | – | – |
| Cc1cccc(/C=N/Nc2cc(N3CCOCC3)nc(OCCc3ccccn3)n2)c1 [Apilimod] | < 6.9 nM | < 6.9 nM | < 6.9 nM | < 6.9 nM | – | significantly rescued the cytopathic effects |
